Here are results for one substance from patent publication US12121523B2, “Method of treatment of attention deficit/hyperactivity disorder (ADHD)” (Supernus Pharmaceuticals, Inc., priority 2008, dated 2024).

In one test the target is 5-HT5A (h) (Homo sapiens, UniProt P47898). Particulars: 10 μM viloxazine; [3H]LSD 1 nM; 60 min/37° C. The source says: (§1) Briefly, recombinant 5-HT1B OR 5-HT7 receptors were expressed in a CHO cell line. The receptors were then saturated with a tritiated receptor-specific ligand at concentrations known to be saturating.
The target in a further test is 5-HT6 (h) (Homo sapiens, UniProt P50406). Particulars: 10 μM viloxazine; [3H]LSD 2 nM; 120 min/37° C.
Description: as §1

A further test concerns the target 5-HT1D (Rattus norvegicus, UniProt P28565). Particulars: 10 μM viloxazine; [3H]serotonin 1 nM; 60 min/22° C.
Description: as §1

Another test concerns the target 5-HT4e (h) (Homo sapiens, UniProt Q13639). Particulars: 10 μM viloxazine; [3H]GR 113808 0.3 nM; 60 min/37° C.
Description: as §1

For a further test, the target named is 5-HT3 (h) (Homo sapiens, UniProt P46098). Particulars: 10 μM viloxazine; [3H]BRL 43694 0.5 nM; 120 min/22° C.
Description: as §1

The target of a further test is 5-HT1B (h) (Homo sapiens, UniProt P28222). How it is done:
The apparent dissociation constants for antagonists Kb were calculated using the modified Cheng Prusoff equation.

The target of test [1] is noradrenergic reuptake transporters (Homo sapiens, UniProt P23975). Particulars: Tatsumi et al 1997; quantity type not given; cited from earlier work.
noradrenergic reuptake transporters, sequence (P23975 whole entry): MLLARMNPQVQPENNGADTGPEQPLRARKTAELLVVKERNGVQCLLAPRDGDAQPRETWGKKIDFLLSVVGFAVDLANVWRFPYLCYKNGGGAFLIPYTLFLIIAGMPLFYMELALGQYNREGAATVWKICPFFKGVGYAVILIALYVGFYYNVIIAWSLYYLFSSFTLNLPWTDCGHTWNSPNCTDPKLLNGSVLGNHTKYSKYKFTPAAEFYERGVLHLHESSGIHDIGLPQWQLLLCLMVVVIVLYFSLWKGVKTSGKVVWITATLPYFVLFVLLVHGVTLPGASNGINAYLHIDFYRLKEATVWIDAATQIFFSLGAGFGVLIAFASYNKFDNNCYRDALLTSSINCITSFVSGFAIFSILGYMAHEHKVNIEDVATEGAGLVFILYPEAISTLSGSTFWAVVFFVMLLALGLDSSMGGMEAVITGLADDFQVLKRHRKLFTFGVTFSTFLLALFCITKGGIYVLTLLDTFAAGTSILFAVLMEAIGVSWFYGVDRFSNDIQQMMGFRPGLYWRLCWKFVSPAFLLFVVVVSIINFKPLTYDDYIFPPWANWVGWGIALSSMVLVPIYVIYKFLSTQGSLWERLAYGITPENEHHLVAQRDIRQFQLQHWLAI

5-HT1B (h), sequence (P28222 whole entry): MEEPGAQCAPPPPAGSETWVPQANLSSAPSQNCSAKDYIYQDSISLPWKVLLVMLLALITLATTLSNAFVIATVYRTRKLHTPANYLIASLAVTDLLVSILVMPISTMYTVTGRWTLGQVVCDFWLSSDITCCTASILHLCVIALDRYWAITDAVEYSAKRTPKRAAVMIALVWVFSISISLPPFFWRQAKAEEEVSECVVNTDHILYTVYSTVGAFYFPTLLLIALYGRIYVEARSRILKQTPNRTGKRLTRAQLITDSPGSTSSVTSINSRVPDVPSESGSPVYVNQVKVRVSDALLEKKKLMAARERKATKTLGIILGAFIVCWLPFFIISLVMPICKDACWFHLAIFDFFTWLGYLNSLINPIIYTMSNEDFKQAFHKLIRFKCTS
5-HT5A (h), sequence (P47898 whole entry): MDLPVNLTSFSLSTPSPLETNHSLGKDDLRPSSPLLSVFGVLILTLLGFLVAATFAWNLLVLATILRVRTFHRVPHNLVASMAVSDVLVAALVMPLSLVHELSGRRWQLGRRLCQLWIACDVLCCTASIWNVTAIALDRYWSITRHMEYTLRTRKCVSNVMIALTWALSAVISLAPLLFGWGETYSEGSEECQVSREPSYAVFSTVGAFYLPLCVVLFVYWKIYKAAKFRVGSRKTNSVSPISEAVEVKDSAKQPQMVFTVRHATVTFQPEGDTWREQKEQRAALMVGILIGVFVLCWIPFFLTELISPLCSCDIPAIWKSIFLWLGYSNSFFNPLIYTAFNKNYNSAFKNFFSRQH
5-HT3 (h), sequence (P46098 24-478): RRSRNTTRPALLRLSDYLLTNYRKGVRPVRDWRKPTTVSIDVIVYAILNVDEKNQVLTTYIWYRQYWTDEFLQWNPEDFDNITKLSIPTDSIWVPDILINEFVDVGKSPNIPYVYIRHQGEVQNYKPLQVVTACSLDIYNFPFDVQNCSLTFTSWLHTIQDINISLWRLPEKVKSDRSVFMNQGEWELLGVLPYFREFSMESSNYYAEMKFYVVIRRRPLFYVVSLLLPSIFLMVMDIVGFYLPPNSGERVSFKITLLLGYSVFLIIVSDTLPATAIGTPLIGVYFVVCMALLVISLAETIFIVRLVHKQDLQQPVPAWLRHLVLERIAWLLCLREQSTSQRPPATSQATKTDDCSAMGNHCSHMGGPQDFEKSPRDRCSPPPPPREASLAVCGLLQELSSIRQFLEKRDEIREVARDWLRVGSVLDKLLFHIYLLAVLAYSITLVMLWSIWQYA
5-HT4e (h), sequence (Q13639 1-378 isoform Q13639-5): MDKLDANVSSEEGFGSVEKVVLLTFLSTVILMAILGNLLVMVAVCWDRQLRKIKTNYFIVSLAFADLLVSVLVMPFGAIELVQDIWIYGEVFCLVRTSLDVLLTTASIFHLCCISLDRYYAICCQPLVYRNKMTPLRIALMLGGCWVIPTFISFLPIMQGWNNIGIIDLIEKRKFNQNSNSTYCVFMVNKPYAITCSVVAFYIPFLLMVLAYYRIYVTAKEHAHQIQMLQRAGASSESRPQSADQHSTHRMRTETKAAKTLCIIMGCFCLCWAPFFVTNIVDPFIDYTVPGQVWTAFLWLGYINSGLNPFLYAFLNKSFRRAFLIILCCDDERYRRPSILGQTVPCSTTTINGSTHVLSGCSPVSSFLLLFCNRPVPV
5-HT1D, sequence (P28565 whole entry): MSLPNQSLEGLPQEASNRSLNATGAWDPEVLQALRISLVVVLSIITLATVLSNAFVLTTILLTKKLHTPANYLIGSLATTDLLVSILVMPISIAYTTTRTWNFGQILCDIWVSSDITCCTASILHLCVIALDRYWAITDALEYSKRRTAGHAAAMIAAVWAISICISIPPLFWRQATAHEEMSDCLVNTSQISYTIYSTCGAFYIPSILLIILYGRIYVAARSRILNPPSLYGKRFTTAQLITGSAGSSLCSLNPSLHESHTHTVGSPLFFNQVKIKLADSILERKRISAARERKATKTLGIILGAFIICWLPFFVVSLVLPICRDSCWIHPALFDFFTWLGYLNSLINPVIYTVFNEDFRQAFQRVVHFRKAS
5-HT6 (h), sequence (P50406 whole entry): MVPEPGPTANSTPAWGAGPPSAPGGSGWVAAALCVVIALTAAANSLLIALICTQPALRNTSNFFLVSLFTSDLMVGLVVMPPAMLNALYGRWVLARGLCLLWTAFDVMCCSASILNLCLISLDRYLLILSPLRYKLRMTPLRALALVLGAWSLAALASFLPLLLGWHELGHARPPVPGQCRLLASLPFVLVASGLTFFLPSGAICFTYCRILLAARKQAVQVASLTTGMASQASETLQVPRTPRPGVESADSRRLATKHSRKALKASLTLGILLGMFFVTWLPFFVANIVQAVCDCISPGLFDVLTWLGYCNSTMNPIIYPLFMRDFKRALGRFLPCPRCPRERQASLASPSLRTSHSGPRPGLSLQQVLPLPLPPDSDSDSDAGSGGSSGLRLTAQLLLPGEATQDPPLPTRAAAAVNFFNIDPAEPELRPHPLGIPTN

As for Viloxazine, the “% Inhib.” value amounted to 15% at 5-HT5A (h); 6% on 5-HT6 (h); 18% on 5-HT1D; 16% on 5-HT4e (h); 18% at 5-HT3 (h). Further, the “antagonist activity (in words)” value on 5-HT1B (h) is “specific antagonist activity”. Also, the “inhibition of noradrenergic reuptake transporters” value in test [1] is on record as 155 nM.
